Here are results for one compound from PMC12130737, “Taurine Alleviates Pancreatic β‐Cell Senescence by Inhibition of p53 Pathway” (Journal of Diabetes, 2025).

The structures appear in SMILES notation. Where a chain is given by its changes, count along the chain named.

The target of test [1] is T1, GFP-tagged CDKN2AIP (Homo sapiens, UniProt Q9NXV6, P484A/L485A/K486A).
T1 construct: GFP-tagged human CDKN2AIP expressed in HEK293 cells, cell lysate
T1 sequence (Q9NXV6 2-580 P484A/L485A/K486A): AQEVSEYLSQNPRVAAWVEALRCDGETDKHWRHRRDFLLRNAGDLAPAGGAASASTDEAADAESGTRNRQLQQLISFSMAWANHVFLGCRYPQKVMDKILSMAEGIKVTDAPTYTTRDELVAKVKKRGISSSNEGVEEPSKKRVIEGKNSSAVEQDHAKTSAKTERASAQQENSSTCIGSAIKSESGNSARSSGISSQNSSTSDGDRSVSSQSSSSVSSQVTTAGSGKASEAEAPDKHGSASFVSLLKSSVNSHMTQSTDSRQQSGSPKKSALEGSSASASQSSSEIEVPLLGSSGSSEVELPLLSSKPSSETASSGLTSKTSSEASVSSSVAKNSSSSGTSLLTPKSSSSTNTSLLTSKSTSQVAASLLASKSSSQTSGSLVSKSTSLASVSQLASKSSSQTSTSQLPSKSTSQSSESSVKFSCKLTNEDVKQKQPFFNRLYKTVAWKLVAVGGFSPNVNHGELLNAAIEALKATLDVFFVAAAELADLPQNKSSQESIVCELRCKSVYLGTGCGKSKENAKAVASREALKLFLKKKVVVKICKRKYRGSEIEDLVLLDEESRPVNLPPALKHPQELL
Kind of test: DARTS (proteinase K protection, immunoblot). Type of test: biochemical. To be noted: HEK293 cell lysate, GFP-tagged triple mutant.

Test [2] deals with T2, CDKN2AIP recombinant protein (Homo sapiens, UniProt Q9NXV6).
T2 construct: recombinant human CDKN2AIP
T2 sequence (Q9NXV6 2-580): T1 sequence (Q9NXV6 2-580 P484A/L485A/K486A) with A483P, A484L, A485K
Kind of test: DARTS (proteinase K protection of recombinant protein). Type of test: binding.

The target of test [3] is T3, SLC6A6 (Mus musculus, UniProt O35316).
T3 construct: endogenous protein in MIN6 cell lysate
T3 sequence (O35316 1-621): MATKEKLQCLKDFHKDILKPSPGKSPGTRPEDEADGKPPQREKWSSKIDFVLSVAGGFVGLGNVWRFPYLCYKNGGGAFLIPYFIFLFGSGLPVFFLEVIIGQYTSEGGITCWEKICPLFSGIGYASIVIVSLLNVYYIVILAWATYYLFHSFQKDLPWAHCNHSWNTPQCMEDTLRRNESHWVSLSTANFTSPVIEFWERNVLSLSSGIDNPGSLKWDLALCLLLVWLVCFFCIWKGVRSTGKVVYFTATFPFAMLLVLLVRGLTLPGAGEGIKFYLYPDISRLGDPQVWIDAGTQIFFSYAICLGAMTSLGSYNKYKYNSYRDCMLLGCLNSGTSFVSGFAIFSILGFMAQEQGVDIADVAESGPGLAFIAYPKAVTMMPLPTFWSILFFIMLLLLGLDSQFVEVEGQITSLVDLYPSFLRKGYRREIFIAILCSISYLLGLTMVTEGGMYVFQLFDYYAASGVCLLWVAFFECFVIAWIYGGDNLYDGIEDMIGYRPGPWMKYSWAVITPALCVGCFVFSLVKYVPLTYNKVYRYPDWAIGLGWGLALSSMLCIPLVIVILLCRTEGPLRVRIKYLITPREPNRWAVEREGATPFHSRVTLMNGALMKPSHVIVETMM
The test can be described thus: DARTS (proteinase K protection, immunoblot). The format is biochemical. To be noted: MIN6 cell lysate, taurine 0-200 uM, pH 7.5, 1 h on ice; positive control.

Test [4] has as its target T4, CDKN2AIP (Mus musculus, UniProt Q8BI72).
T4 construct: endogenous protein in MIN6 cell lysate
T4 sequence (Q8BI72 2-563): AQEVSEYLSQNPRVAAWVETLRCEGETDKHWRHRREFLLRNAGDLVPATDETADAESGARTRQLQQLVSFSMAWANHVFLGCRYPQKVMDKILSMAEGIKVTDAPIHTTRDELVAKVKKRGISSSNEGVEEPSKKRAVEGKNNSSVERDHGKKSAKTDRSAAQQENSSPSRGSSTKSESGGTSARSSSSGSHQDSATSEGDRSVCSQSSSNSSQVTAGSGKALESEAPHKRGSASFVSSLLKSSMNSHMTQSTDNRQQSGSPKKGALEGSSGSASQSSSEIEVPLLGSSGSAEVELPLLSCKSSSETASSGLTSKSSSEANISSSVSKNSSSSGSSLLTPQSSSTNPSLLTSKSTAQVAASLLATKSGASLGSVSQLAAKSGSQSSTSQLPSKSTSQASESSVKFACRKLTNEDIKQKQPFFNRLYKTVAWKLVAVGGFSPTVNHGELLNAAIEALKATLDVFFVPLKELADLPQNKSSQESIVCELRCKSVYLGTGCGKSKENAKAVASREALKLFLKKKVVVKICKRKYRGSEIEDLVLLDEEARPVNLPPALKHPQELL
Kind of test: DARTS (proteinase K protection, immunoblot). To be noted: MIN6 cell lysate, taurine 0-200 uM, pH 7.5, 1 h on ice. The format is biochemical.

For test [5], the target named is T5, CDKN2AIP (Rattus norvegicus, UniProt Q5U2X0).
T5 construct: endogenous protein in INS-1E cell lysate
T5 sequence (Q5U2X0 2-570): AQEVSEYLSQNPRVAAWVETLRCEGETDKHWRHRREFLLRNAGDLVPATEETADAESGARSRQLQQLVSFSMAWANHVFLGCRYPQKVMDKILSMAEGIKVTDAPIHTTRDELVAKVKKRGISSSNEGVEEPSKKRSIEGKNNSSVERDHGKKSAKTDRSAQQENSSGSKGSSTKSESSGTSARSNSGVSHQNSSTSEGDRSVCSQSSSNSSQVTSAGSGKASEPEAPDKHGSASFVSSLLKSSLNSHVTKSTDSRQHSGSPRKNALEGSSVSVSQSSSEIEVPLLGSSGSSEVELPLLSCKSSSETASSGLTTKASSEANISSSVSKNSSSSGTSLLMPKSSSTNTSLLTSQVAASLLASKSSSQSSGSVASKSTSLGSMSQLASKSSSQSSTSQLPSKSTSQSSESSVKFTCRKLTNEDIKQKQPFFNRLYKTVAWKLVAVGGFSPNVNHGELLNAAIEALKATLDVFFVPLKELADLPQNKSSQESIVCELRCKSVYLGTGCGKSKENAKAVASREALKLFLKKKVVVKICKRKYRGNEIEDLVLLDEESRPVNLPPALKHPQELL
The test can be described thus: DARTS (proteinase K protection, immunoblot). The format is biochemical. The settings on record: INS-1E cell lysate, taurine 0-200 uM, pH 7.5, 1 h on ice.

The target of test [6] is T6, SLC6A6 (Rattus norvegicus, UniProt P31643).
T6 construct: endogenous protein in INS-1E cell lysate
T6 sequence (P31643 1-621): T3 sequence (O35316 1-621) with H151Q, T188A, N212H, D281N, G286E, L435V, V521I, L555V, V602A
Kind of test: DARTS (proteinase K protection, immunoblot). To be noted: INS-1E cell lysate, taurine 0-200 uM, pH 7.5, 1 h on ice; positive control. Type of test: biochemical.

The target in test [7] is T7, GFP-tagged CDKN2AIP (Homo sapiens, UniProt Q9NXV6).
T7 construct: GFP-tagged human CDKN2AIP expressed in HEK293 cells, cell lysate
T7 sequence (Q9NXV6 2-580): T1 sequence (Q9NXV6 2-580 P484A/L485A/K486A) with A483P, A484L, A485K
Kind of test: DARTS (proteinase K protection, immunoblot). To be noted: HEK293 cell lysate, GFP-tagged wild type. The format is biochemical.

As for `NCCS(=O)(=O)O` [taurine, 2‐aminoethanesulfonic acid], the “DARTS (proteinase K protection, immunoblot)” value at GFP-tagged CDKN2AIP [1] was “taurine bound to wild‐type CDKN2AIP but not the CDKN2AIP‐triple mutant”; at SLC6A6 [3] it was “taurine dose‐dependently prevented protease K‐induced degradation of CDKN2AIP and SLC6A6”; on CDKN2AIP [4] it was “taurine dose‐dependently prevented protease K‐induced degradation of CDKN2AIP and SLC6A6”; on CDKN2AIP [5] it was “taurine dose‐dependently prevented protease K‐induced degradation of CDKN2AIP and SLC6A6”; at SLC6A6 [6] it was “taurine dose‐dependently prevented protease K‐induced degradation of CDKN2AIP and SLC6A6”; on GFP-tagged CDKN2AIP [7] it was “DARTS experiments demonstrated that taurine bound to wild‐type CDKN2AIP”. The “DARTS (proteinase K protection of recombinant protein)” value in test [2] is reported as “Taurine also prevented proteinase K‐induced degradation of the CDKN2AIP recombinant protein”.
